From patent US12168033B2, “Synergistic composition for osteoarthritis” (LAILA NUTRACEUTICALS, priority 2014, dated 2024)

Tested on: Adjuvant Induced Arthritis
Assay: Adjuvant Induced Arthritis in Sprague Dawley rats, Complete Freund's Adjuvant, 20 days (Example 20)
Type: in vivo
Description: Sprague Dawley Rats were housed in solid bottom autoclaved polypropylene cages at three rats per cage with stainless steel top grill. Animals were provided with rodent pellet feed and mineral water ad libitum. The animals were acclimatized for a period of 3 days prior to enrollment into the experiment and they are habituated/adapted to the experimenter and to the experimental conditions for measurement of hind limb weight bearing capacity in the Incapacitance meter. A group of 35 animals were examined and 30 healthy SD rats were selected for the study and were randomly assigned to one of five different groups based on the paw volume, i.e., normal control (G1), vehicle control (G2), two groups (G3 & G4) supplemented with test substances composition-11 (200 mg 400 mg) and with reference drug prednisolone 10 mg/kg (G5). After 7 days administration of test item, reference item or vehicle, on day 8 arthritis was induced in rats of all groups except G1 by a single subcutaneous injection of 50 μL Complete Freund's Adjuvant (Sigma-Aldrich, USA), into the sub plantar region of left hind limb. Control group animals were injected with 0.1 mL normal saline (0.9% w/v sodium chloride). The vehicle, test items and reference drug were administered till completion of the study, i.e., 20 days. Paw volume was measured by a Plethysmometer (Pan Lab, LE7500) on day 0 (prior to treatment) and day 20. The difference between the final and initial paw volume was considered as edema volume. The in vivo anti-inflammatory responses of test compounds were estimated by calculating the percentage inhibition of paw edema when compared to the paw edema observed in the CMC supplemented control group. […] Percentage weight bearing capacity was measured in all the groups before induction and on 20th day of treatment using Incapacitance Meter (IITC Life Science Inc., CA).

## C[C@]12C=CC(=O)C=C1CC[C@@H]1[C@@H]2[C@@H](O)C[C@@]2(C)[C@H]1CC[C@]2(O)C(=O)CO [Prednisolone, prednisolone]
10 mmp (prednisolone), Day-20, mean ± S.E.M, six rats
  Percent Weight Bearing on Left Hind Limb, Day-20: 49.88 ± 1.13%
10 mmp (prednisolone), before induction
  Percent Weight Bearing on Left Hind Limb, Before Induction: 49.57 ± 0.55%
Prednisolone 10 mg/kg, day 20
  % inhibition of paw edema: 69.7%
